Measured values published in ChEMBL document CHEMBL1143254, “Structure-based design of novel 2-amino-6-phenyl-pyrimido[5',4':5,6]pyrimido[1,2-a]benzimidazol-5(6H)-ones as potent and orally active inhibitors of lymphocyte specific kinase (Lck): synthesis, SAR, and in vivo anti-inflammatory activity” (J Med Chem, 2008).

molecular target: Proto-oncogene tyrosine-protein kinase Src (Homo sapiens, UniProt P12931); assay: Inhibition of Src by HTRF assay
Sequence (P12931 2-536 limits assumed): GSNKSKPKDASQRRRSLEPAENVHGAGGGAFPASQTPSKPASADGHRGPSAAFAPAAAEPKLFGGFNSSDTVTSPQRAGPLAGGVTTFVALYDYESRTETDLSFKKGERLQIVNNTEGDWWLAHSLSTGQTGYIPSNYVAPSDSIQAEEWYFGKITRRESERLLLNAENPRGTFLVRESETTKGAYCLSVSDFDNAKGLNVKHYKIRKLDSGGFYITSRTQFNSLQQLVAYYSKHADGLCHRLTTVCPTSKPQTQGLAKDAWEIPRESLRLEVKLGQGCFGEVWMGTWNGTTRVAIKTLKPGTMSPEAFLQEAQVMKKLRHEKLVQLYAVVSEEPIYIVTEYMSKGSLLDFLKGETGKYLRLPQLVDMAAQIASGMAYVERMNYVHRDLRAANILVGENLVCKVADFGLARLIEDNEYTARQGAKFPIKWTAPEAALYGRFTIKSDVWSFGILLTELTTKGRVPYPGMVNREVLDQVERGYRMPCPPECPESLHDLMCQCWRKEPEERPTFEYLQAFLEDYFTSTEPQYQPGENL

| IC50 [nM] | Compound |
| --- | --- |
| 70 | COc1cc(Nc2ncc3c(=O)n(-c4c(C)cccc4C)c4nc5ccccc5n4c3n2)cc(OC)c1OCCCN1CCN(C)CC1 |
| 77 | COc1cc(Nc2ncc3c(=O)n(-c4c(C)cccc4C)c4nc5ccccc5n4c3n2)cc(OC)c1OCCN1CCN(C)CC1 |
| 1900 | COc1cccc(-n2c(=O)c3cnc(Nc4ccc(N5CCN(C)CC5)cc4)nc3n3c4ccccc4nc23)c1 |

molecular target: Mitogen-activated protein kinase 14 (Homo sapiens, UniProt Q16539); assay: Inhibition of p38-alpha by HTRF assay
Sequence (Q16539 whole entry): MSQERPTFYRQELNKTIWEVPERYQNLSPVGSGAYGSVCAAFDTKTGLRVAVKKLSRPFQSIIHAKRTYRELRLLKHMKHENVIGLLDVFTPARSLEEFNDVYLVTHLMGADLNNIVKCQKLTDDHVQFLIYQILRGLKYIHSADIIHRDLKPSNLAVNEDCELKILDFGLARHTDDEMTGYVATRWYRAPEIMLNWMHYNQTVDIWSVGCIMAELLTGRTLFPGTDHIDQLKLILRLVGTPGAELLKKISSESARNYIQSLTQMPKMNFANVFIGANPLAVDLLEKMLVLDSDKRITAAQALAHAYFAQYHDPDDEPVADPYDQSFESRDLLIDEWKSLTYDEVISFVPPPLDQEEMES

| IC50 [nM] | Compound |
| --- | --- |
| > 10000 | COc1cc(Nc2ncc3c(=O)n(-c4c(C)cccc4C)c4nc5ccccc5n4c3n2)cc(OC)c1OCCCN1CCN(C)CC1 |
| > 10000 | COc1cc(Nc2ncc3c(=O)n(-c4c(C)cccc4C)c4nc5ccccc5n4c3n2)cc(OC)c1OCCN1CCN(C)CC1 |

molecular target: Vascular endothelial growth factor receptor 2 (Homo sapiens, UniProt P35968); assay: Inhibition of KDR by HTRF assay
Sequence (P35968 whole entry): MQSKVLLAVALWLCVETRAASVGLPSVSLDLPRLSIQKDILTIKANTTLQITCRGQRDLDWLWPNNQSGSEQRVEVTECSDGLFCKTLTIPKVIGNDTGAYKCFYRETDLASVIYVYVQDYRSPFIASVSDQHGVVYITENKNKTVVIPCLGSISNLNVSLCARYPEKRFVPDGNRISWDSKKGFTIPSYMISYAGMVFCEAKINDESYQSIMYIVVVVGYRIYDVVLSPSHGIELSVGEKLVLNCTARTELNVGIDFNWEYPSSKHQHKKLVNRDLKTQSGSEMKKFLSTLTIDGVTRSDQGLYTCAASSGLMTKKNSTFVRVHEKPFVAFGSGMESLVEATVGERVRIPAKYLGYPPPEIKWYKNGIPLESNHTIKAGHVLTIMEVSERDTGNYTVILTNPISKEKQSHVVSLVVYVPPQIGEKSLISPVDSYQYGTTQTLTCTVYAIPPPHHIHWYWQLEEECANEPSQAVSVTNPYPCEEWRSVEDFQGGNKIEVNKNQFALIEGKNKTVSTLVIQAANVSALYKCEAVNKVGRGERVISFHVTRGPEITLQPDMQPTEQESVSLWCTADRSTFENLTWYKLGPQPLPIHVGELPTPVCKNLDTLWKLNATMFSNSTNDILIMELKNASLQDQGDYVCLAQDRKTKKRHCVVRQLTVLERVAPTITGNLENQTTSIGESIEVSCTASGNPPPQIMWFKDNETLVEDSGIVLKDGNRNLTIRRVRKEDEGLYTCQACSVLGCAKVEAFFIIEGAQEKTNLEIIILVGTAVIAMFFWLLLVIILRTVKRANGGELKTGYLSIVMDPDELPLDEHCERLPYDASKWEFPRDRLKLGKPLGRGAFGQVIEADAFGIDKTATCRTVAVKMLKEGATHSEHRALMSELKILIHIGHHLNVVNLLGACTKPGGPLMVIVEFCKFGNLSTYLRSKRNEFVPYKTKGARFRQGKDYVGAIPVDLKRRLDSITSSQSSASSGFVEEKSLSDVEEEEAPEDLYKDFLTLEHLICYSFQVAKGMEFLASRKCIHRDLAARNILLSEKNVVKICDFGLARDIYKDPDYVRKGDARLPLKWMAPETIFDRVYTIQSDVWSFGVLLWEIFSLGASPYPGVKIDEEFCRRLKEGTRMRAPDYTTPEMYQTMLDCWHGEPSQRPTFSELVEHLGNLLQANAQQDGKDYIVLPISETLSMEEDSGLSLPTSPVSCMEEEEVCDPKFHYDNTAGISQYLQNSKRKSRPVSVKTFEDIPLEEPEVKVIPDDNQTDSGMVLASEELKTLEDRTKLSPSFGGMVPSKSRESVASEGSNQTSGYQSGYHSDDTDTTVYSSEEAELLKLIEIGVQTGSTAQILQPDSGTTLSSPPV

| IC50 [nM] | Compound |
| --- | --- |
| 4000 | COc1cc(Nc2ncc3c(=O)n(-c4c(C)cccc4C)c4nc5ccccc5n4c3n2)cc(OC)c1OCCCN1CCN(C)CC1 |
| 3300 | COc1cc(Nc2ncc3c(=O)n(-c4c(C)cccc4C)c4nc5ccccc5n4c3n2)cc(OC)c1OCCN1CCN(C)CC1 |
| 8300 | COc1cccc(-n2c(=O)c3cnc(Nc4ccc(N5CCN(C)CC5)cc4)nc3n3c4ccccc4nc23)c1 |

test system: T-cell; assay: Inhibition of anti-CD3/CD28-induced IL2 production in human T cells; assay type: functional, cell-based

| IC50 [nM] | Compound |
| --- | --- |
| 190 | COc1cc(Nc2ncc3c(=O)n(-c4c(C)cccc4C)c4nc5ccccc5n4c3n2)cc(OC)c1OCCCN1CCN(C)CC1 |
| 610 | COc1cc(Nc2ncc3c(=O)n(-c4c(C)cccc4C)c4nc5ccccc5n4c3n2)cc(OC)c1OCCN1CCN(C)CC1 |

test system: Lymphocyte; assay: Inhibition of T cell activation in human peripheral blood lymphocytes by mixed lymphocyte reaction; assay type: functional, cell-based

| IC50 [nM] | Compound |
| --- | --- |
| 80 | COc1cc(Nc2ncc3c(=O)n(-c4c(C)cccc4C)c4nc5ccccc5n4c3n2)cc(OC)c1OCCCN1CCN(C)CC1 |
| 290 | COc1cc(Nc2ncc3c(=O)n(-c4c(C)cccc4C)c4nc5ccccc5n4c3n2)cc(OC)c1OCCN1CCN(C)CC1 |

test system: not listed separately; assay: Solubility in simulated intestinal fluid at pH 6.8; assay type: physicochemical

| solubility [µg/mL] | Compound |
| --- | --- |
| > 200 | COc1cc(Nc2ncc3c(=O)n(-c4c(C)cccc4C)c4nc5ccccc5n4c3n2)cc(OC)c1OCCN1CCN(C)CC1 |

molecular target: Tyrosine-protein kinase Lck (Homo sapiens, UniProt P06239)
Sequence (P06239 whole entry): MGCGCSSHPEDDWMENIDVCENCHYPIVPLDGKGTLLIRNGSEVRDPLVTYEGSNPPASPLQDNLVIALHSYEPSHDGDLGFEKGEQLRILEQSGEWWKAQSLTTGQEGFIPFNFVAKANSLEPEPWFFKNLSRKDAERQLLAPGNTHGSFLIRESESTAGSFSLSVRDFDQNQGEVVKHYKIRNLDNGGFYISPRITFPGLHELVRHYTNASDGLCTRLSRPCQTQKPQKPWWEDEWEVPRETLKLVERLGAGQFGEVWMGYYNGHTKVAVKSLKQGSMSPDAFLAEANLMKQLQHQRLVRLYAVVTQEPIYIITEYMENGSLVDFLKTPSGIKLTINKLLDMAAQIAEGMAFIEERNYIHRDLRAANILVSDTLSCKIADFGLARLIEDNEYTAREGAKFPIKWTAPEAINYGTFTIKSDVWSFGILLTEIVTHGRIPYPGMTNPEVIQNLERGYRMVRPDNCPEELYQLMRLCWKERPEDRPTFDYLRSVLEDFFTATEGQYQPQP
Description: Inhibition of Lck by HTRF assay

| IC50 [nM] | Compound |
| --- | --- |
| 6 | COc1cc(Nc2ncc3c(=O)n(-c4c(C)cccc4C)c4nc5ccccc5n4c3n2)cc(OC)c1OCCCN1CCN(C)CC1 |
| 6 | COc1cc(Nc2ncc3c(=O)n(-c4c(C)cccc4C)c4nc5ccccc5n4c3n2)cc(OC)c1OCCN1CCN(C)CC1 |
| 190 | COc1cccc(-n2c(=O)c3cnc(Nc4ccc(N5CCN(C)CC5)cc4)nc3n3c4ccccc4nc23)c1 |
